Assay results as given in PubChem BioAssay (NCI).
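In this assay, cells in 96-well plates receive the compound at five concentrations for 48 hours. Endpoints are linearly interpolated between the surrounding concentrations. At the GI50, growth is halved. TGI marks complete inhibition of growth.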

Experiments:
Assay in all cases: growth of human tumour cells (NCI), 48 h
[1] = system: HT29 colon
[2] = system: COLO 205 colon
[3] = system: A549 NSCLC
[4] = system: SN12C renal
[5] = system: SK-OV-3 ovarian
[6] = system: OVCAR-4 ovarian
[7] = system: IGROV1 ovarian
[8] = system: KM12 colon
[9] = system: OVCAR-5 ovarian
[10] = system: HCT-15 colon
[11] = system: CCRF-CEM leukemia
[12] = system: HL-60(TB) leukemia
[13] = system: ACHN renal
[14] = system: NCI-H522 lung
[15] = system: MDA-MB-231 breast
[16] = system: SK-MEL-2 melanoma
[17] = system: SF-268 CNS
[18] = system: A498 renal
[19] = system: OVCAR-8 ovarian
[20] = system: HCC-2998 colon
[21] = system: EKVX NSCLC
[22] = system: SW-620 colon
[23] = system: MALME-3M melanoma
[24] = system: UACC-257 melanoma
[25] = system: MDA-MB-435
[26] = system: TK-10 renal
[27] = system: MCF7 breast
[28] = system: SF-539 CNS
[29] = system: DU-145 prostate
[30] = system: NCI-H226 lung

CCCCN1C(=O)/C(=C\C(=O)c2cc3ccccc3oc2=O)c2ccccc21
GI50 [1]: 20.3 µM | TGI [1]: 41.2 µM | GI50 [2]: 17 µM | TGI [2]: 31.1 µM | GI50 [3]: > 100 µM | TGI [3]: > 100 µM | GI50 [4]: 14.7 µM | TGI [4]: 30 µM | GI50 [5]: > 100 µM | TGI [5]: > 100 µM | GI50 [6]: 16.9 µM | TGI [6]: 35.4 µM | GI50 [7]: 24.5 µM | TGI [7]: 94.8 µM | GI50 [8]: > 100 µM | TGI [8]: > 100 µM | GI50 [9]: 30.6 µM | TGI [9]: > 100 µM | GI50 [10]: 15.6 µM | TGI [10]: 30.7 µM | GI50 [11]: 4.26 µM | TGI [11]: 24.2 µM | GI50 [12]: 3.06 µM | TGI [12]: 11.9 µM | GI50 [13]: 13.4 µM | TGI [13]: 26.1 µM | GI50 [14]: 14.3 µM | TGI [14]: 28.7 µM | GI50 [15]: 14.3 µM | TGI [15]: 27.6 µM | GI50 [16]: 52 µM | TGI [16]: > 100 µM | GI50 [17]: 16.9 µM | TGI [17]: 36.3 µM | GI50 [18]: > 100 µM | TGI [18]: > 100 µM | GI50 [19]: 18.3 µM | TGI [19]: 47.5 µM | GI50 [20]: > 100 µM | TGI [20]: > 100 µM | GI50 [21]: 15.5 µM | TGI [21]: 32 µM | GI50 [22]: 14.3 µM | TGI [22]: 29.7 µM | GI50 [23]: 13.7 µM | TGI [23]: 26.7 µM | GI50 [24]: 14.7 µM | TGI [24]: 31.3 µM | GI50 [25]: 17.6 µM | TGI [25]: 41.6 µM | GI50 [26]: 20.9 µM | TGI [26]: 35.8 µM | GI50 [27]: 12.6 µM | TGI [27]: 28.7 µM | GI50 [28]: 16.2 µM | TGI [28]: 30 µM | GI50 [29]: 16.7 µM | TGI [29]: 33.2 µM | GI50 [30]: 14.4 µM
